Experimental data as given in US20090061006A1, “Layered Nanoparticles for Sustained Release of Small Molecules” (priority 2006, published 2009).
Like-named read-outs stand apart in the source and are kept apart here. Where a SMILES comes first, the peptide text is derived from it. [ ]: non-standard residue; d: D form. dPhe(4-Cl) = N[C@H](Cc1ccc(Cl)cc1)C(=O)O; d2Nal = N[C@H](Cc1ccc2ccccc2c1)C(=O)O; dCit = NC(=O)NCCC[C@@H](N)C(=O)O; d3Pal = N[C@H](Cc1cccnc1)C(=O)O

Tests used:
[1] = test system: human ovarian cancer cell lines; details: cited from earlier work
[2] = test system: human endometrial cancer cell lines; details: cited from earlier work
[3] = cited from earlier work
[4] = test system: MDA-MB-435S human breast cancer cells; assay: Cytotoxicity study, thiazolyl Blue (MTT) cell viability; type: cell-based; details: 9 hours incubation
Experimental: MDA-MB-435S cells were seeded into 12 well plates and grown in culture media containing Leibovitz's L-15 medium, 10% fetal bovine serum, 0.01 mg/mL bovine insulin, 100 IU/mL penicillin, and 100 μg/mL streptomycin. The cells were kept in tightly closed flasks at 37° C. in an incubator and grown to 70% confluence. Treatments with free Phor21-βCG(ala) were conducted at concentrations of 5, 20, and 100 μM. Treatments with silica-peptide nanoshells were conducted at corresponding amounts, equivalent to total Phor21-βCG(ala) concentrations of 5, 20, and 100 μM. On a separate plate silica nanoshells without peptide (15 mg/mL culture medium) were added to MDA-MB-435S cell cultures to determine their effect on cell viability. In all incubations, added saline was used as a control. Total incubation time was 9 hours at 37° C. Cell viability was measured in a thiazolyl Blue assay using [3-(4,5)-Dimethylthiazol-2-yl]-2,5 Diphenyltetrazolium Bromide—MTT. Cleavage of the tetrazolium ring by active mitochondria was used as a measure of the number of living cells. Statistical significance was determined using analysis of variance (ANOVA) and a two-tailed Student's t-test. Differences were considered significant at p<0.05.

[5] = in vivo
breast cancer xenograft = details: intravenously injected, cited from earlier work
cancer cells = assay: Potency in destroying cancer cells; type: cell-based
[6] = cited from earlier work; remark: listed apart in the source

Molecule: CC(=O)N[C@H](Cc1ccc2ccccc2c1)C(=O)N[C@H](Cc1ccc(Cl)cc1)C(=O)N[C@H](Cc1cccnc1)C(=O)N[C@@H](CO)C(=O)N[C@@H](Cc1ccc(O)cc1)C(=O)N[C@H](CCCNC(N)=O)C(=O)N[C@@H](CC(C)C)C(=O)N[C@@H](CCCNC(=N)N)C(=O)N1CCC[C@H]1C(=O)N[C@H](C)C(N)=O [Cetrorelix] (Ac-[d2Nal][dPhe(4-Cl)][d3Pal]SY[dCit]LRP[dA]-NH2)
- in vitro proliferation [1]: inhibited
- in vitro proliferation [2]: inhibited

Molecule: C[C@@H]1C[C@H]2[C@@H]3CCC4=CC(=O)C=C[C@]4(C)[C@@]3(F)[C@@H](O)C[C@]2(C)[C@@]1(O)C(=O)CO [Dexamethasone]
- solubility in water [3]: insoluble

Molecule: CC(C)C[C@H](NC(=O)[C@@H](Cc1c[nH]c2ccccc12)NC(=O)[C@H](Cc1ccc(O)cc1)NC(=O)[C@H](CO)NC(=O)[C@H](Cc1c[nH]c2ccccc12)NC(=O)[C@H](Cc1c[nH]cn1)NC(=O)[C@@H]1CCC(=O)N1)C(=O)N[C@@H](CCCNC(=N)N)C(=O)N1CCC[C@H]1C(=O)NCC(N)=O [triptorelin]
- in vitro proliferation [1]: inhibited
- in vitro proliferation [2]: inhibited

Molecule: Phor21-βCG(ala): 35-residue conjugate peptide KFAKFAKKFAKFAKKFAKFAK-SYAVASAQAALAAR (SEQ ID NO. 1): lytic peptide Phor21 plus gonadotropin analog ligand βCG(ala) (KFAKFAKKFAKFAKKFAKFAKSYAVASAQAALAAR; Phor21-beta-CG(ala) Peptide)
- activity at 100 micromolar versus 20 micromolar [4]: significantly lower activity
- toxicity against breast cancer cells ([4]; free peptide, 5, 20 and 100 μM, N=6): destroyed
- time after which free peptide is almost completely destroyed in circulation [5]: about three
- cell death in treated tumors (breast cancer xenograft; 8 mg/kg body weight, p<0.01): lower
- cell death in treated tumors (breast cancer xenograft; 0.2 and 2 mg/kg body weight, p<0.05): significantly higher

Molecule: Phor21: membrane-disrupting lytic peptide, residues 1-21 of SEQ ID NO. 1 (KFAKFAKKFAKFAKKFAKFAK; Phor21-beta-CG(ala) Peptide)
- potency in destroying cancer cells versus Hecate or Phor14 (cancer cells): more potent

Molecule: luteinizing hormone releasing hormone [LHRH]
- half-life in vivo [6]: ~20 min
